Patent US20240150368A1, “ULK INHIBITORS AND METHODS OF USE THEREOF” (Deciphera Pharmaceuticals, LLC, priority 2022, published 2024)
pIC50: −log10 of the molar value.

Columns and labels:
[1] = molecular target: T1, ULK1 kinase (Homo sapiens, UniProt O75385, E37A/K38A); test: Biochemical assay for ULK1 (coupled pyruvate kinase/lactate dehydrogenase assay); conditions: 1 mM ATP, 0.1 nM ULK1; read-out: ULK1 (inhibition of biochemical activity), IC50
T1 construct: (residues 1-283; ID NO: 1); purchased Beryllium
T1 sequence (O75385 1-283 E37A/K38A): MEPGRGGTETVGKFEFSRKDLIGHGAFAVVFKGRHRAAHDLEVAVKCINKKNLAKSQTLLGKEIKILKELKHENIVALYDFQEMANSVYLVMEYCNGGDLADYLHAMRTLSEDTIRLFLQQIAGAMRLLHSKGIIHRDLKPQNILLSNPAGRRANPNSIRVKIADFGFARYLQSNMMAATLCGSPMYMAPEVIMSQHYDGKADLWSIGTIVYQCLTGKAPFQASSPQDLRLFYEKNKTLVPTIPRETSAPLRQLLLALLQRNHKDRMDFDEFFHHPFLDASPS
Method in brief: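 IC50 values were fitted to percent inhibition, normalised with no-compound and known-inhibitor controls, using rates from 2–3 h of a 6 h read at 30 °C. ADP was coupled through pyruvate kinase/lactate dehydrogenase to NADH loss at 340 nm.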

[2] = molecular target: T2, ULK2 kinase (Homo sapiens, UniProt Q8IYT8); test: Biochemical assay for ULK2 (coupled pyruvate kinase/lactate dehydrogenase assay); conditions: 1 mM ATP, 1 nM ULK2; read-out: ULK2 (inhibition of biochemical activity), IC50
T2 construct: (residues 1-306 with N-terminal GST and His tag; ID NO: 2); purchased Signal Chem U02-11G
T2 sequence (Q8IYT8 with tags, fused parts or gaps): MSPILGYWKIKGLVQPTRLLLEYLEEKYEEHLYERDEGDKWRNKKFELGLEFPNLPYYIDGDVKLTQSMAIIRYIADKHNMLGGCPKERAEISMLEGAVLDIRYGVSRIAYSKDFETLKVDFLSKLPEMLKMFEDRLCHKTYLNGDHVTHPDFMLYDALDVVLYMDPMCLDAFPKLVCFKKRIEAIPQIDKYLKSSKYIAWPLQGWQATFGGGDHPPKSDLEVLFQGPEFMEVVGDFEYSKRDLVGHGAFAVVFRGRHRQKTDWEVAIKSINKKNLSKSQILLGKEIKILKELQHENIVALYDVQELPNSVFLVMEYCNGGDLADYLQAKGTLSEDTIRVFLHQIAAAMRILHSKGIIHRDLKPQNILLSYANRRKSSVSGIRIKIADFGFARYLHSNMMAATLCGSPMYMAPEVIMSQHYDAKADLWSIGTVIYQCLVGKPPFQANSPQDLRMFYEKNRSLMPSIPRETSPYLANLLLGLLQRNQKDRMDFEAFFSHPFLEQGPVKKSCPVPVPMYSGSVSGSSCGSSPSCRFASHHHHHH
Method in brief: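 Continuous PK/LDH-coupled NADH oxidation assay (A340) with 1 nM ULK2, 200 μM ULKtide and 1 mM ATP in Tris pH 7.5, 15 mM MgCl2, 1% DMSO, read 6 h at 30° C. Rates from the 2-3 h window converted to percent inhibition against no-compound and known-inhibitor controls; IC50 by four-parameter sigmoidal fit.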

[3] = system: ULK kinase substrate ATG13 (pS318-ATG13) in MiaPaCa-2 cells; test: pATG13 levels of mutant KRas MiaPaCa-2 cells after treatment with ULK inhibitors in combination with trametinib (ELISA); assay type: cell-based, human
Method: pATG13 Levels of Mutant KRas MiaPaCa-2 Cells after Treatment with ULK Inhibitors in Combination with Trametinib
MiaPaCa-2 human pancreatic cancer cells (10000 cells/well) were added to a 384-well tissue-culture treated plate in 50 μL of pre-warmed DMEM medium supplemented with 10% characterized fetal bovine serum (Invitrogen, Carlsbad, CA), 100 units/mL penicillin G, 100 μg/mL streptomycin, and 2.5% Horse Serum and allowed to grow overnight at 37° C., 5% CO2, and 95% humidity. The following day, 10 μL of media containing trametinib or DMSO as a control was added to wells. The final concentration of trametinib in wells was 250 nM. A dose response of a test compound (0.6 μL per well) was added. DMSO (0.6 μL) was added to control wells. The plate was briefly shaken to mix wells and then incubated at 37° C. overnight. The next day, the media was aspirated and cells were washed with Dulbecco's Phosphate Buffered Saline (Gibco). Cells were lysed using MPER lysis buffer (Pierce, Rockford, IL) containing Halt Phosphatase and Protease Inhibitors (Pierce, Rockford, IL) and Phosphatase inhibitor cocktail 2 (Sigma, St. Louis, MO) at 4° C. for 10 minutes with shaking.
Cellular levels of phospho-Serine 318 ATG13 (pATG13) were measured via an ELISA method. Total ATG13 Antibody (Cell Signaling Cat #13273) was used to coat the wells. The plate was incubated at 4° C. overnight and washed with ELISA wash buffer (Biolegend Cat #421601). The wells were then blocked with assay diluent (Biolegend Cat #421203) for 1 h at rt. Plate wells were washed with ELISA wash buffer. Cell lysate was added to wells and incubated at rt for 2 h. Plate wells were washed with ELISA wash buffer. Biotinylated pS318-ATG13 antibody (Rockland Immunochemicals Cat #600-401-C49) was diluted in assay diluent and added to each well and incubated at rt for 1 h. Plate wells were washed with ELISA wash buffer. Streptavidin linked to horseradish peroxidase (Thermo Fisher Cat #21140) was diluted in assay diluent and added to each well and incubated at rt for 1 h. Plate wells were washed with ELISA wash buffer. High sensitivity TMB substrate (Biolegend Cat #421101) was added to each well and incubated at rt for 20 min. The reaction was stopped with 2.0N sulfuric acid. The plate was analyzed at on a plate reader measuring absorbance at 450 nm and 540 nm (background). Signal was calculated by first subtracting the background absorbance at 540 nm from the absorbance at 450 nm for each well. Next, the background corrected absorbance at 450 nm from blank wells was subtracted from test wells. Data was compared to control wells to determine % ATG13 phosphorylation. GraphPad Prism was used to calculate IC50 values.

Row | pIC50 [1] | pIC50 [2] | pIC50 [3] | Compound
1 | 7.00 to 8.00 | 6.30 to 7.00 | 6.52 to 7.00 | CC/C(Nc1cnn(C2CCN(C(C)C)CC2)c1)=C1/C(=O)Nc2ccc(C(=O)NCC3CCC(C4CC4)O3)cc21 (centres unmarked) [Example 3, (Z)—N-((5-cyclopropyltetrahydrofuran-2-yl)methyl)-3-(1-((1-(1-isopropylpiperidin-4-yl)-1H-pyrazol-4-yl)amino)propylidene)-2-oxoindoline-5-carboxamide]
2 | ≥ 8.00 | 7.00 to 8.00 | ≥ 7.00 | CC/C(Nc1cnn(C(C)C)c1)=C1/C(=O)Nc2ccc(C(=O)NCC(F)(F)F)cc21 [Example 4, (Z)-3-(1-((1-isopropyl-1H-pyrazol-4-yl)amino)propylidene)-2-oxo-N-(2,2,2-trifluoroethyl)indoline-5-carboxamide]
3 | 7.00 to 8.00 | 6.30 to 7.00 | 6.52 to 7.00 | CC/C(Nc1cnn(C(C)C)c1)=C1/C(=O)Nc2ccc(C(=O)NCC3(C)COC3)cc21 [Example 5, (Z)-3-(1-((1-isopropyl-1H-pyrazol-4-yl)amino)propylidene)-N-((3-methyloxetan-3-yl)methyl)-2-oxoindoline-5-carboxamide]
4 | ≥ 8.00 | 7.00 to 8.00 | ≥ 7.00 | CC/C(Nc1cnn(C2CCN(C(C)C)CC2)c1)=C1/C(=O)Nc2ccc(C(=O)N(C)CC(F)(F)F)cc21 [Example 7]
5 | ≥ 8.00 | 7.00 to 8.00 | ≥ 7.00 | CC/C(Nc1cnn(C2CCN(C(C)C)CC2)c1)=C1/C(=O)Nc2ccc(C(=O)NCC(F)(F)F)cc21 [Example 8]
6 | 7.00 to 8.00 | – | 6.52 to 7.00 | CC/C(Nc1cnn(C2CCN(C(C)C)CC2)c1)=C1/C(=O)Nc2ccc(C(=O)N(C)CCOC)cc21 [Example 9]
7 | ≥ 8.00 | 7.00 to 8.00 | ≥ 7.00 | CC/C(Nc1cnn(C2CCN(C(C)C)CC2)c1)=C1/C(=O)Nc2ccc(C(=O)NCC(C)C)cc21 [Example 16]
8 | 7.00 to 8.00 | 7.00 to 8.00 | ≥ 7.00 | CC/C(Nc1cnn(C2CCN(C(C)C)CC2)c1)=C1/C(=O)Nc2ccc(C(=O)NCC3CCO3)cc21 (centres unmarked) [Example 21]
9 | ≥ 8.00 | 7.00 to 8.00 | ≥ 7.00 | CC/C(Nc1cnn(C2CCN(C(C)C)CC2)c1)=C1/C(=O)Nc2ccc(C(=O)NCCC#N)cc21 [Example 26]
10 | 7.00 to 8.00 | 6.30 to 7.00 | ≥ 7.00 | CC/C(Nc1cnn(C2CCN(C(C)C)CC2)c1)=C1/C(=O)Nc2ccc(C(=O)NCC(C)(C)OC)cc21 [Example 27]
11 | 7.00 to 8.00 | 7.00 to 8.00 | ≥ 7.00 | CC/C(Nc1cnn(C2CCN(C(C)C)CC2)c1)=C1/C(=O)Nc2ccc(C(=O)NCC(C)(C)O)cc21 [Example 28]
12 | ≥ 8.00 | 7.00 to 8.00 | ≥ 7.00 | CC/C(Nc1cnn(C2CCN(C(C)C)CC2)c1)=C1/C(=O)Nc2ccc(C(=O)NC3CC(F)(F)C3)cc21 [Example 29]
13 | ≥ 8.00 | ≥ 8.00 | ≥ 7.00 | CC/C(Nc1cnn(C2CCN(C(C)C)CC2)c1)=C1/C(=O)Nc2ccc(C(=O)NCC3CC(F)(F)C3)cc21 [Example 30]
14 | ≥ 8.00 | ≥ 8.00 | ≥ 7.00 | CC/C(Nc1cnn(C2CCN(C(C)C)CC2)c1)=C1/C(=O)Nc2ccc(C(=O)NCCC(F)(F)F)cc21 [Example 31]
15 | ≥ 8.00 | 7.00 to 8.00 | ≥ 7.00 | CC/C(Nc1cnn(C2CCN(C3CCOCC3)CC2)c1)=C1/C(=O)Nc2ccc(C(=O)NCC(C)C)cc21 [Example 37]
16 | ≥ 8.00 | 7.00 to 8.00 | ≥ 7.00 | CC/C(Nc1cnn(C2CCN(C(C)C)CC2)c1)=C1/C(=O)Nc2ccc(C(=O)NCC3CC3)cc21 [Example 42]

Row | pIC50 [1] | pIC50 [2] | pIC50 [3] | Compound
17 | ≥ 8.00 | ≥ 8.00 | ≥ 7.00 | CC/C(Nc1cnn(C2CCN(C(C)C)CC2)c1)=C1/C(=O)Nc2ccc(C(=O)NCC3CCCC3)cc21 [Example 44]
18 | ≥ 8.00 | 7.00 to 8.00 | ≥ 7.00 | CC/C(Nc1ccc(N2CCN(C(C)C)CC2)cc1)=C1/C(=O)Nc2ccc(C(=O)NC[C@H]3CCCO3)cc21 [Example 47]
19 | ≥ 8.00 | 7.00 to 8.00 | ≥ 7.00 | CC/C(Nc1cnn(C2CCN(C)CC2)c1)=C1/C(=O)Nc2ccc(C(=O)NC[C@H]3CCCO3)cc21 [Example 51]
20 | ≥ 8.00 | 7.00 to 8.00 | ≥ 7.00 | CC/C(Nc1cnn(C2CCNCC2)c1)=C1/C(=O)Nc2ccc(C(=O)NC[C@H]3CCCO3)cc21 [Example 52]
21 | ≥ 8.00 | 7.00 to 8.00 | ≥ 7.00 | CC/C(Nc1cnn(C2CN(C)C2)c1)=C1/C(=O)Nc2ccc(C(=O)NC[C@H]3CCCO3)cc21 [Example 54]
22 | 7.00 to 8.00 | 6.30 to 7.00 | ≥ 7.00 | CC/C(Nc1cnn(C)c1)=C1/C(=O)Nc2ccc(C(=O)NC[C@H]3CCCO3)cc21 [Example 55]
23 | 7.00 to 8.00 | 6.30 to 7.00 | ≥ 7.00 | CC/C(Nc1cnn(C2CCN(C(C)C)CC2)c1)=C1/C(=O)Nc2ccc(C(=O)NC[C@@H](C)OC)cc21 [Example 58]
24 | ≥ 8.00 | 7.00 to 8.00 | ≥ 7.00 | CC/C(Nc1ccc(N2C[C@H]3CN(C)C[C@H]3C2)cc1)=C1/C(=O)Nc2ccc(C(=O)NCC(F)(F)F)cc21 [Example 61]
25 | ≥ 8.00 | 7.00 to 8.00 | ≥ 7.00 | CC/C(Nc1ccc(N2CC3(CN(C)C3)C2)cc1)=C1/C(=O)Nc2ccc(C(=O)NCC(F)(F)F)cc21 [Example 62]
26 | ≥ 8.00 | 7.00 to 8.00 | ≥ 7.00 | CC/C(Nc1ccc(N2CCN(C(C)C)CC2)cn1)=C1/C(=O)Nc2ccc(C(=O)NC[C@H]3CCCO3)cc21 [Example 93]
27 | 7.00 to 8.00 | 7.00 to 8.00 | ≥ 7.00 | CC/C(Nc1cnc(N2CCN(C(C)C)CC2)cn1)=C1/C(=O)Nc2ccc(C(=O)NCC(F)(F)F)cc21 [Example 94]
28 | ≥ 8.00 | 7.00 to 8.00 | ≥ 7.00 | CC/C(Nc1cnn(C(C)C)c1)=C1/C(=O)Nc2ccc(C(=O)NC[C@H]3CCCO3)cc21 [Example 95]
29 | ≥ 8.00 | 6.30 to 7.00 | ≥ 7.00 | CC/C(Nc1cnn(C2CCN(C(C)C)CC2)c1)=C1/C(=O)Nc2ccc(C(=O)NCCOC)cc21 [Example 98]
30 | 6.30 to 7.00 | 6.30 to 7.00 | 6.52 to 7.00 | CC/C(Nc1ccc(N2CCN(C(C)C)CC2)cc1)=C1/C(=O)Nc2cc(F)c(C(=O)NCC(F)(F)F)cc21 [Example 100]
31 | ≥ 8.00 | 7.00 to 8.00 | ≥ 7.00 | C/C(Nc1cnn(C(C)C)c1)=C1/C(=O)Nc2ccc(C(=O)NCC(F)(F)F)cc21 [Example 101]
32 | 7.00 to 8.00 | 7.00 to 8.00 | ≥ 7.00 | CC/C(Nc1cnn(CCOC)c1)=C1/C(=O)Nc2ccc(C(=O)NCC(F)(F)F)cc21 [Example 102]

Row | Compound | pIC50 [1] | pIC50 [2] | pIC50 [3]
33 | CC/C(Nc1cnn(C2CC3CCC(C2)N3C)c1)=C1/C(=O)Nc2ccc(C(=O)NC[C@H]3CCCO3)cc21 (some centres unmarked) [Example 53] | ≥ 8.00 | 7.00 to 8.00 | ≥ 7.00
34 | CC/C(Nc1ccc(N2CC3CC(C2)N3C)cc1)=C1/C(=O)Nc2ccc(C(=O)NCC(F)(F)F)cc21 [Example 60] | ≥ 8.00 | 7.00 to 8.00 | ≥ 7.00
